Measurements from ChEMBL document CHEMBL4229455, “Synthesis and anticancer activity of novel bisindolylhydroxymaleimide derivatives with potent GSK-3 kinase inhibition” (Bioorg Med Chem, 2018).

What was measured:
Format in all cases: functional
[1] = tested on: HL-60(TB); test: Cytotoxicity against human HL-60(TB) cells assessed as cell growth at 0.01 uM after 48 hrs by SRB assay relative to control; conditions: HL-60, 48 h, read-out: Activity
[2] = tested on: K562; test: Cytotoxicity against human K562 cells assessed as cell growth at 0.01 uM after 48 hrs by SRB assay relative to control; conditions: K562, 48 h, read-out: Activity
[3] = tested on: SW-620; test: Cytotoxicity against human SW620 cells assessed as cell growth at 0.01 uM after 48 hrs by SRB assay relative to control; conditions: SW-620, 48 h, read-out: Activity
[4] = tested on: Malme-3M; test: Cytotoxicity against human MALME-3M cells assessed as cell growth at 0.01 uM after 48 hrs by SRB assay relative to control; conditions: read-out: Activity
[5] = tested on: SK-OV-3; test: Cytotoxicity against human SKOV3 cells assessed as cell growth at 0.01 uM after 48 hrs by SRB assay relative to control; conditions: SK-OV-3, 48 h, read-out: Activity
[6] = tested on: CAKI-1; test: Cytotoxicity against human Caki1 cells assessed as cell growth at 0.01 uM after 48 hrs by SRB assay relative to control; conditions: CAKI-1, 48 h, read-out: Activity
[7] = tested on: PC-3; test: Cytotoxicity against human PC3 cells assessed as cell growth at 0.01 uM after 48 hrs by SRB assay relative to control; conditions: PC-3, 48 h, read-out: Activity
[8] = tested on: NCI-H226; test: Cytotoxicity against human NCI-H226 cells assessed as cell growth at 0.1 uM after 48 hrs by SRB assay relative to control; conditions: NCI-H226, 48 h, read-out: Activity
[9] = tested on: HCC 2998; test: Cytotoxicity against human HCC2998 cells assessed as cell growth at 0.1 uM after 48 hrs by SRB assay relative to control; conditions: HCC 2998, 48 h, read-out: Activity
[10] = tested on: OVCAR-3; test: Cytotoxicity against human OVCAR3 cells assessed as cell growth at 0.1 uM after 48 hrs by SRB assay relative to control; conditions: OVCAR-3, 48 h, read-out: Activity
[11] = tested on: A498; test: Cytotoxicity against human A498 cells assessed as cell growth at 0.1 uM after 48 hrs by SRB assay relative to control; conditions: A498, 48 h, read-out: Activity
[12] = tested on: CAKI-1; test: Cytotoxicity against human Caki1 cells assessed as cell growth at 0.1 uM after 48 hrs by SRB assay relative to control; conditions: CAKI-1, 48 h, read-out: Activity
[13] = tested on: DU-145; test: Cytotoxicity against human DU145 cells assessed as cell growth at 0.1 uM after 48 hrs by SRB assay relative to control; conditions: DU-145, 48 h, read-out: Activity
[14] = tested on: NCI-H23; test: Cytotoxicity against human NCI-H23 cells assessed as cell growth at 1 uM after 48 hrs by SRB assay relative to control; conditions: NCI-H23, 48 h, read-out: Activity
[15] = tested on: HCT-116; test: Cytotoxicity against human HCT116 cells assessed as cell growth at 1 uM after 48 hrs by SRB assay relative to control; conditions: HCT-116, 48 h, read-out: Activity
[16] = tested on: HCT-15; test: Cytotoxicity against human HCT15 cells assessed as cell growth at 1 uM after 48 hrs by SRB assay relative to control; conditions: HCT-15, 48 h, read-out: Activity
[17] = tested on: Malme-3M; test: Cytotoxicity against human MALME-3M cells assessed as cell growth at 1 uM after 48 hrs by SRB assay relative to control; conditions: read-out: Activity
[18] = tested on: SK-OV-3; test: Cytotoxicity against human SKOV3 cells assessed as cell growth at 1 uM after 48 hrs by SRB assay relative to control; conditions: SK-OV-3, 48 h, read-out: Activity
[19] = tested on: SN12C; test: Cytotoxicity against human SN12C cells assessed as cell growth at 1 uM after 48 hrs by SRB assay relative to control; conditions: read-out: Activity
[20] = tested on: PC-3; test: Cytotoxicity against human PC3 cells assessed as cell growth at 1 uM after 48 hrs by SRB assay relative to control; conditions: PC-3, 48 h, read-out: Activity
[21] = tested on: MOLT-4; test: Cytotoxicity against human MOLT4 cells assessed as cell growth at 100 uM after 48 hrs by SRB assay relative to control; conditions: MOLT-4, 48 h, read-out: Activity
[22] = tested on: NCI-H522; test: Cytotoxicity against human NCI-H522 cells assessed as cell growth at 100 uM after 48 hrs by SRB assay relative to control; conditions: NCI-H522, 48 h, read-out: Activity
[23] = tested on: SK-MEL-2; test: Cytotoxicity against human SK-MEL-2 cells assessed as cell growth at 100 uM after 48 hrs by SRB assay relative to control; conditions: SK-MEL-2, 48 h, read-out: Activity
[24] = tested on: OVCAR-5; test: Cytotoxicity against human OVCAR5 cells assessed as cell growth at 100 uM after 48 hrs by SRB assay relative to control; conditions: OVCAR-5, 48 h, read-out: Activity
[25] = tested on: OVCAR-8; test: Cytotoxicity against human OVCAR8 cells assessed as cell growth at 100 uM after 48 hrs by SRB assay relative to control; conditions: OVCAR-8, 48 h, read-out: Activity
[26] = tested on: A498; test: Cytotoxicity against human A498 cells assessed as cell growth at 100 uM after 48 hrs by SRB assay relative to control; conditions: A498, 48 h, read-out: Activity
[27] = tested on: PC-3; test: Cytotoxicity against human PC3 cells assessed as cell growth at 100 uM after 48 hrs by SRB assay relative to control; conditions: PC-3, 48 h, read-out: Activity
[28] = tested on: MDA-MB-231; test: Cytotoxicity against human MDA-MB-231 cells assessed as cell growth at 100 uM after 48 hrs by SRB assay relative to control; conditions: MDA-MB-231, 48 h, read-out: Activity
[29] = tested on: CCRF-CEM; test: Cytotoxicity against human CCRF-CEM cells after 48 hrs by SRB assay
[30] = tested on: HOP-92; test: Cytotoxicity against human HOP92 cells after 48 hrs by SRB assay; conditions: HOP-92, 48 h; for CC50: read-out: LC50 (the source's name)
[31] = tested on: NCI-H226; test: Cytotoxicity against human NCI-H226 cells after 48 hrs by SRB assay; conditions: NCI-H226, 48 h
[32] = tested on: KM12; test: Cytotoxicity against human KM12 cells after 48 hrs by SRB assay; conditions: KM12, 48 h
[33] = tested on: SK-MEL-5; test: Cytotoxicity against human SK-MEL-5 cells after 48 hrs by SRB assay; conditions: SK-MEL-5, 48 h; for CC50: read-out: LC50 (the source's name)
[34] = tested on: OVCAR-5; test: Cytotoxicity against human OVCAR5 cells after 48 hrs by SRB assay; conditions: OVCAR-5, 48 h
[35] = tested on: DU-145; test: Cytotoxicity against human DU145 cells after 48 hrs by SRB assay; conditions: DU-145, 48 h
[36] = tested on: MDA-MB-468; test: Cytotoxicity against human MDA-MB-468 cells after 48 hrs by SRB assay; conditions: MDA-MB-468, 48 h

Compound: N#CCCCCCn1cc(C2=C(c3cn(CCCCCC#N)c4ccccc34)C(=O)N(O)C2=O)c2ccccc21
- growth at 0.01 µM [1]: 98%
- growth at 0.01 µM [2]: 85%
- growth at 0.01 µM [3]: 100%
- growth at 0.01 µM [4]: 100%
- growth at 0.01 µM [5]: 98%
- growth at 0.01 µM [6]: 98%
- growth at 0.01 µM [7]: 93%
- growth at 0.1 µM [8]: 96%
- growth at 0.1 µM [9]: 101%
- growth at 0.1 µM [10]: 101%
- growth at 0.1 µM [11]: 82%
- growth at 0.1 µM [12]: 95%
- growth at 0.1 µM [13]: 103%
- growth at 1 µM [14]: 94%
- growth at 1 µM [15]: 98%
- growth at 1 µM [16]: 92%
- growth at 1 µM [17]: 107%
- growth at 1 µM [18]: 86%
- growth at 1 µM [19]: 93%
- growth at 1 µM [20]: 80%
- growth at 100 µM [21]: 2%
- growth at 100 µM [22]: -30%
- growth at 100 µM [23]: -38%
- growth at 100 µM [24]: 18%
- growth at 100 µM [25]: 3%
- growth at 100 µM [26]: -1%
- growth at 100 µM [27]: -4%
- growth at 100 µM [28]: -7%
- GI50 [29]: 2.73 µM
- LC50 [29]: > 100 µM
- TGI [29]: > 100 µM
- GI50 [30]: 5.03 µM
- TGI [30]: > 100 µM
- CC50 [30]: > 100 µM
- GI50 [31]: 7.26 µM
- LC50 [31]: > 100 µM
- TGI [31]: 70.8 µM
- GI50 [32]: 4.78 µM
- LC50 [32]: > 100 µM
- TGI [32]: 33.1 µM
- GI50 [33]: 2.92 µM
- TGI [33]: 10.6 µM
- CC50 [33]: 42.8 µM
- GI50 [34]: 38.4 µM
- LC50 [34]: > 100 µM
- TGI [34]: > 100 µM
- GI50 [35]: 27.8 µM
- LC50 (50% lethal concentration) [35]: > 100 µM
- TGI [35]: > 100 µM
- GI50 [36]: 3.47 µM
- LC50 [36]: > 100 µM
- TGI [36]: 13.9 µM

Compound: Cn1cc(C2=C(c3cn(C)c4ncccc34)C(=O)NC2=O)c2ccccc21
- growth at 0.01 µM [1]: 106%
- growth at 0.01 µM [2]: 108%
- growth at 0.01 µM [3]: 96%
- growth at 0.01 µM [4]: 109%
- growth at 0.01 µM [5]: 104%
- growth at 0.01 µM [6]: 97%
- growth at 0.01 µM [7]: 99%
- growth at 0.1 µM [8]: 91%
- growth at 0.1 µM [9]: 93%
- growth at 0.1 µM [10]: 111%
- growth at 0.1 µM [11]: 73%
- growth at 0.1 µM [12]: 86%
- growth at 0.1 µM [13]: 102%
- growth at 1 µM [14]: 84%
- growth at 1 µM [15]: 86%
- growth at 1 µM [16]: 84%
- growth at 1 µM [17]: 110%
- growth at 1 µM [18]: 77%
- growth at 1 µM [19]: 76%
- growth at 1 µM [20]: 86%
- growth at 100 µM [21]: -24%
- growth at 100 µM [22]: -30%
- growth at 100 µM [23]: -55%
- growth at 100 µM [24]: -15%
- growth at 100 µM [25]: -15%
- growth at 100 µM [26]: -49%
- growth at 100 µM [27]: -9%
- growth at 100 µM [28]: -25%
- GI50 [29]: 2.86 µM
- TGI [29]: > 100 µM
- GI50 [30]: 2.54 µM
- TGI [30]: 23.4 µM
- CC50 [30]: > 100 µM
- GI50 [31]: 2.24 µM
- TGI [31]: 6.84 µM
- GI50 [32]: 2.89 µM
- TGI [32]: 13.4 µM
- GI50 [33]: 2.15 µM
- TGI [33]: 5.8 µM
- CC50 [33]: 21.8 µM
- GI50 [34]: 3.88 µM
- TGI [34]: 29.1 µM
- GI50 [35]: 6.24 µM
- TGI [35]: 36.2 µM
- GI50 [36]: 2.22 µM
- TGI [36]: 9.46 µM
